In patent publication US20120156216A1, “Methods and Compositions for Treatment of Tumor Metastasis” (priority 2009, published 2012):

What was measured:
[1] = general statement on statins; cited from earlier work
[2] = tested on: CTGF in M12 prostate cancer cells; test: Suppression of endogenous CTGF by statins in M12 prostate cancer cells; type: cell-based, human; conditions: 1 μM, four days, FIG. 3A
Text: The effect of statins on the TGF-β- and CTGF-induced EMT in prostate cancer cells was further tested. Several stains are available with different pharmacokinetics and biotransformation rates. […] The hydrophilic statins are absorbed preferentially by the liver, where they inhibit production of cholesterol. More lipophilic statins are readily distributed to sites beyond the liver, where they inhibit intracellular synthesis of cholesterol. These different pharmacokinetic properties of statins may greatly influence effectiveness against advanced prostate cancer in vivo.

[3] = tested on: CTGF in MDA 231 breast cancer cells; test: Suppression of endogenous CTGF by statins in MDA 231 breast cancer cells; type: cell-based, human; conditions: 1 μM, four days, FIG. 3B
[4] = tested on: radiation-induced CTGF in M12 prostate cancer cells; test: Radiation-induced CTGF expression in M12 prostate cancer cells; type: cell-based, human; conditions: 1 μM, four days, FIG. 9A
Text: In an effort to determine the mechanism of radiation-induced adverse effects, such as radio-resistance and increased potential of metastasis in human cancer, M12 prostate cancer cells and BEAS-2B-CSC lung cancer cells were exposed to increasing amounts of radiation, ranging from 0 to 10 Grays (Gy). To detect protein expression for CTGF and CTGF-regulated protein fibronectin, M12 and BEAS-2B-CSC cells were harvested 3 days after irradiation, and culture media (CM) and cell lysates (CL) were separated by SDS-PAGE. Western immunoblotting was performed with antibodies specific for CTGF, fibronectin, and α-tubulin. […] As a control for protein loading, α-tubulin expression was also determined.
The ability of statins to inhibit radiation-induced CTGF expression was assessed in M12 prostate cancer cells and BEAS-2B-CSC lung cancer cells.

[5] = tested on: CTGF and fibronectin in normal immortalized human lung fibroblasts; test: Basal and TGF-β1-induced CTGF and fibronectin expression in stromal fibroblasts; type: cell-based
[6] = tested on: EMT markers in M12 prostate cancer cells; test: CTGF-induced (AdCTGF) EMT marker expression in M12 prostate cancer cells, RT-PCR and Western immunoblot; type: cell-based, human
Text: In order to identify direct effect of CTGF on EMT induction in human cancer, an adenoviral expression vector was used. M12 (FIGS. 5 A-B) and M2182 (FIGS. 5 C-D) prostate cancer cells were infected with either an empty adenoviral constructs or an adenoviral vector expressing CTGF (AdCTGF) for either 18 hrs or 2 days to collect total RNAs for RT-PCR (FIGS. 5 A and C) and proteins for Western immunoblot analysis (FIGS. 5 B and D), respectively.
M12 (FIGS. 6 A-B) and M2182 (FIGS. 6 C-D) prostate cancer cells were infected with either an empty adenoviral construct (ADEV) or an adenoviral vector expressing CTGF (AdCTGF) for either 18 hrs or 2 days to collect total RNAs for RT-PCR (FIGS. 5 A and C) or proteins for Western immunoblot analysis (FIGS. 5 B and D), respectively.

[7] = stromal cells treated with TGF-β1 0 ng/ml to 25 ng/ml, 3 days, Western immunoblot, FIG. 4A

Compound: CC(C)n1c(/C=C/[C@@H](O)C[C@@H](O)CC(=O)O)c(-c2ccc(F)cc2)c2ccccc21 (relative stereo) [fluvastatin, (3R,5S,6E)-rel-7-[3-(4-fluorophenyl)-1-(1-methylethyl)-1H-indol-2-yl]-3,5--dihydroxy-6-heptenoic acid]
- solubility (fat soluble or water soluble) [1]: more fat soluble

Compound: CC[C@H](C)C(=O)O[C@H]1C[C@@H](C)C=C2C=C[C@H](C)[C@H](CC[C@@H]3C[C@@H](O)CC(=O)O3)[C@H]21 [lovastatin, 2(S)-2-methyl-butanoic acid (1S,3R,7S,8S,8aR)-1,2,3,7,8,8a-hexahydro-3,7-dimethyl-8-[2-[(2R,4R)-tetrahydro-4-hydroxy-6-oxo-2H-pyran-2-yl]ethyl]-1-na-phthalenyl ester]
- suppression of CTGF [2]: significant suppression
- suppression of CTGF [3]: significant suppression
- suppression of radiation-induced CTGF expression [4]: significant suppression
- solubility (fat soluble or water soluble) [1]: more fat soluble

Compound: CCC(C)C(=O)OC1CCC=C2C=C[C@H](C)[C@H](CC[C@@H]3CC(O)CC(=O)O3)[C@H]21 (stereo partly drawn) [mevastatin, ((1S,7S,8S,8aR)-8-{2-[(2R,4R)-4-hydroxy-6-oxotetrahydro-2H-pyran-2-yl]ethyl}-7-methyl-1,2,3,7,8,8a-hexahydronaphthalen-1-yl (2S)-2-methylbutanoate);]
- solubility (fat soluble or water soluble) [1]: more water soluble

Compound: CC[C@H](C)C(=O)O[C@H]1C[C@H](O)C=C2C=C[C@H](C)[C@H](CC[C@@H](O)C[C@@H](O)CC(=O)O)[C@H]21 [pravastatin]
- suppression of CTGF [2]: significant suppression
- suppression of CTGF [3]: significant suppression
- suppression of radiation-induced CTGF expression [4]: significant suppression
- solubility (fat soluble or water soluble) [1]: more water soluble

Compound: CCC(C)(C)C(=O)O[C@H]1C[C@@H](C)C=C2C=C[C@H](C)[C@H](CC[C@@H]3C[C@@H](O)CC(=O)O3)[C@H]21 [simvastatin, 2,2-dimethyl-butanoic acid (1S,3R,7S,8S,8aR)-1,2,3,7,8,8a-hexahydro-3,7-dimethyl-8-[2-[(2R,4R)-tetrahydro-4-hydroxy-6-oxo-2H-pyran-2-yl]ethyl]-1-naphthalenyl ester]
- basal CTGF expression ([5]; stromal fibroblasts, simvastatin 0.1 μM to 2.0 μM, 20 hours, semi-quantitative RT-PCR, FIG. 4B): suppression
- epithelial marker E-cadherin expression ([6]; M12 cells, AdCTGF, 5 μM simvastatin, mRNA level and protein level, FIGS. 6 A-B): increase
- adenoviral transduced IGFBP-rP2/CTGF expression ([6]; prostate cancer cells, simvastatin at concentrations, 2 μM, 4 μM, 5 μM): did not affect
- suppression of CTGF [2]: significant suppression
- suppression of CTGF [3]: significant suppression

Compound: TGF-β1: transforming growth factor beta, potent inducer of CTGF, used to treat stromal fibroblasts
- production of CTGF ([5]; TGF-β1 at 10 ng/ml, FIG. 4A): robust production
- expression of CTGF [5, 7]: significantly increased
- expression of fibronectin [5, 7]: significantly increased
